Where “and” joins values, the source holds several entries; their conditions need not be identical. Equal values may be shown once.
How the values were obtained:
[1] = (§1) Functional metabolic assay to measure dose dependent changes in cell viability from drug treatment in HeLa-ACE2 cells. Hela-ACE2 cells are seeded prior to drug treatment, then incubated in MTT (3-[4,5-dimethylthiazol-2-yl]-2,5- diphenyltetrazolium bromide) labelling reagent and SDS. Absorbance is measured at 560 and 750 nm and analyzed by Gen5 software. The assay has been performed by Icahn School of Medicine at Mount Sinai.; assay type: toxicity, cell-based; conditions: human
[2] = Functional metabolic assay to measure dose dependent changes in cell viability from drug treatment in Vero E6/TMPRSS2 cells (cotreated with P-gp inhibitor, Elacridar). Cells are treated with antiviral candidates that have been serially diluted. Cytotoxicity is reported via measuring absorbance and analysis of MTT/MTS assays in uninfected cells. The assay has been performed by Icahn School of Medicine at Mount Sinai.; assay type: toxicity, cell-based, VeroE6/TMPRSS2; conditions: chlorocebus sabaeus
[3] = as §1, with “iPSC-Pneumocyte” for “HeLa-ACE2”, “The” for “Hela-ACE2”, “seeded” for “seeded prior to drug treatment,”, “labeling” for “labelling”; assay type: toxicity, cell-based; conditions: human
[4] = Vero E6/TMPRSS2 cells, with Elacridar (P-gp inhibitor), concentration not stated

SMILES | CC50 ([1]; HeLa-ACE2 cells) [µM] | CC10 ([1]; hela-ace2) | CC50 ([3]; iPSC-Pneumocyte cells) [µM] | CC10 ([3]; pneumocyte) | other results
CC(C)[C@@H](Nc1ncnc2[nH]c(-c3cnn(CC(=O)N(C)C)c3)cc12)c1ccc2c(c1)S(=O)(=O)CCC2 | > 20 | > 20 µM |  |  | 
COc1ccc([C@H](Cc2nnn[nH]2)NC(=O)c2ncnc3[nH]ccc23)cc1 | > 20 | > 20 µM |  |  | CC50 [2, 4]: > 5 µM; CC10 ([2]; veroe6/tmprss2): > 5 µM
CC(C)[C@H](Nc1ncnc2[nH]c(-c3cnn(C)c3C#N)cc12)c1ccc2c(c1)S(=O)(=O)CCC2 | > 20 | > 20 µM |  |  | 
CC(C)[C@@H](Nc1ncnc2[nH]c(-c3ccc4nnn(C)c4c3)cc12)c1ccc2c(c1)S(=O)(=O)CCC2 | > 20 | > 20 µM |  |  | 
CC(C)[C@@H](Nc1ncnc2[nH]ccc12)c1ccc2c(c1)S(=O)(=O)CCO2 | > 20 | > 20 µM |  |  | 
C[C@H](C(=O)O)[C@@H](NC(=O)c1ncnc2[nH]ccc12)c1ccc(Br)cc1 | > 20 | > 20 µM |  |  | CC50 [2, 4]: > 5 µM; CC10 ([2]; veroe6/tmprss2): > 5 µM
CC(C)[C@@H](Nc1ncnc2[nH]c(-c3cnn(CC(N)=O)c3)cc12)c1ccc2c(n1)OCCO2 |  |  | > 50 | > 50 µM | 
CCNC(=O)c1cc2c(N[C@@H](c3ccc4c(c3)S(=O)(=O)CCC4)C(C)C)ncnc2[nH]1 | > 20 | > 20 µM |  |  | 
CC(C)[C@@H](Nc1ncnc2[nH]c(C(N)=O)cc12)c1ccc2c(c1)OCCO2 | < 0.082 | < 0.082 µM | > 50 | > 50 µM | 
CNC(=O)c1cccc(-c2cc3c(N[C@@H](c4ccc5c(c4)S(=O)(=O)CCC5)C(C)C)ncnc3[nH]2)c1 | > 20 | > 20 µM |  |  | 
Cc1nn(C)cc1-c1cc2c(N[C@@H](c3ccc4c(c3)S(=O)(=O)CCC4)C(C)C)ncnc2[nH]1 | > 20 | > 20 µM |  |  | 
CNC(=O)Cn1cc(-c2cc3c(N[C@@H](c4ccc5c(c4)S(=O)(=O)CCC5)C(C)C)ncnc3[nH]2)cn1 | > 20 | > 20 µM | 1.7 | 1.528 µM | CC50 [2, 4]: > 5 µM; CC10 ([2]; veroe6/tmprss2): > 5 µM
CC(C)[C@@H](Nc1ncnc2[nH]c(-c3cnn(C)n3)cc12)c1ccc2c(c1)OCCO2 | > 20 | > 20 µM | < 0.206 | < 0.206 µM | 
CC(C)[C@@H](Nc1ncnc2[nH]ccc12)c1ccc2c(c1)S(=O)(=O)CCC2 |  | > 50 µM and > 20 µM | > 50 | > 50 µM | CC50 ([1]; hela-ace2): > 50 µM
CC(C)[C@@H](Nc1ncnc2[nH]c(-c3cnn(C)c3C#N)cc12)c1ccc2c(c1)S(=O)(=O)CCC2 | > 20 | > 20 µM | > 50 | > 50 µM | 
CNCc1cc(-c2cc3c(N[C@H](c4ccc5c(c4)S(=O)(=O)CCC5)C(C)C)ncnc3[nH]2)co1 | > 20 | > 20 µM |  |  | 
CNC(=O)Cn1cc(-c2cc3c(N[C@H](c4ccc5c(c4)S(=O)(=O)CCC5)C(C)C)ncnc3[nH]2)cn1 | > 20 | > 20 µM | > 50 | > 50 µM | 
CC(C)[C@@H](Nc1ncnc2[nH]c(-c3cncc(S(C)(=O)=O)c3)cc12)c1ccc2c(c1)S(=O)(=O)CCC2 | > 20 | > 20 µM |  |  | 
CC(C)[C@@H](Nc1ncnc2[nH]c(-c3cnn(CC(N)=O)c3)cc12)c1ccc2c(c1)OCCO2 | > 50 | > 50 µM | > 50 | > 50 µM | 
CCNC(=O)c1cc2c(N[C@@H](c3ccc4c(c3)OCCO4)C(C)C)ncnc2[nH]1 |  |  | < 0.206 | 1.29 µM | 
CNC(=O)c1cc2c(N[C@@H](c3ccc4c(c3)OCCO4)C(C)C)ncnc2[nH]1 | > 50 | > 50 µM | > 50 | > 50 µM | 
CC(C)[C@@H](Nc1ncnc2[nH]c(C(=O)N[C@H]3CCN(C)C3)cc12)c1ccc2c(c1)S(=O)(=O)CCC2 | > 20 | > 20 µM | > 50 | > 50 µM | 
CC(C)[C@@H](Nc1ncnc2[nH]ccc12)c1ccc2c(c1)NC(=O)CO2 | > 50 | > 50 µM | > 50 | > 50 µM | 
CC(C)(C)[C@H](Nc1ncnc2[nH]c(-c3cnn(CC(N)=O)c3)cc12)c1ccc2c(c1)OCCO2 | > 20 | > 20 µM |  |  | 
CC(C)[C@@H](Nc1ncnc2[nH]c(-c3cnn(C)c3C#N)cc12)c1ccc2c(n1)OCCO2 |  | > 50 µM and > 20 µM | 6.02 | 5.176 µM | CC50 ([1]; hela-ace2): > 50 µM; CC50 [2, 4]: > 5 µM; CC10 ([2]; veroe6/tmprss2): > 5 µM
CCNC(=O)c1cc2c(N[C@@H](c3ccc4c(c3)S(=O)(=O)NCC4)C(C)C)ncnc2[nH]1 | > 20 | > 20 µM |  |  | 
CC(C)[C@@H](Nc1ncnc2[nH]c(-c3cnn(CC(=O)N(C)C)c3)cc12)c1ccc2c(c1)OCCO2 | > 20 | > 20 µM |  |  | 

SMILES | CC50 ([1]; HeLa-ACE2 cells) [µM] | CC10 ([1]; hela-ace2) | CC50 ([3]; iPSC-Pneumocyte cells) [µM] | CC10 ([3]; pneumocyte) | other results
CC(C)[C@@H](Nc1ncnc2[nH]c(-c3cnn(C)c3)cc12)c1ccc2c(c1)S(=O)(=O)CCC2 | > 20 | > 20 µM | > 50 | > 50 µM | 
CC(C)[C@@H](Nc1ncnc2[nH]c(-c3cnn(CC(N)=O)c3)cc12)c1ccc2c(c1)S(=O)(=O)CCC2 | > 20 | > 20 µM |  |  | 
CC(C)[C@H](Nc1ncnc2[nH]c(-c3cnn(C)c3)cc12)c1ccc2c(c1)S(=O)(=O)CCC2 | > 20 | > 20 µM |  |  | 
CC(C)[C@@H](Nc1ncnc2[nH]cc(C(=O)NC3CC3)c12)c1ccc2c(c1)S(=O)(=O)CCC2 | > 20 | > 20 µM |  |  | 
CC(C)[C@@H](Nc1ncnc2[nH]c(-c3cnn(C)c3C#N)cc12)c1ccc2c(c1)OCCO2 | > 50 | > 50 µM |  | 24.479 µM and > 50 µM | CC50 ([3]; pneumocyte): 18.1 µM and > 50 µM
CC(C)[C@H](Nc1ncnc2[nH]c(-c3cnn(CC(N)=O)c3)cc12)c1ccc2c(c1)S(=O)(=O)CCC2 | > 20 | > 20 µM | > 50 | > 50 µM | 
CC(C)[C@H](Nc1ncnc2[nH]c(-c3cnn(C)c3C#N)cc12)c1ccc2c(n1)NC(=O)CO2 | > 20 | > 20 µM |  |  | 
CCNC(=O)c1cc2c(N[C@@H](c3ccc4c(c3)S(=O)(=O)CCO4)C(C)C)ncnc2[nH]1 | > 20 | > 20 µM |  |  | 
CCNC(=O)c1cc2c(N[C@H](c3ccc4c(c3)OCCO4)C(C)C)ncnc2[nH]1 | > 20 | > 20 µM |  |  | 
C[C@@H](C(=O)O)[C@H](NC(=O)c1ncnc2[nH]ccc12)c1ccc(Br)cc1 | > 20 | > 20 µM |  |  | 
CC(C)[C@@H](Nc1ncnc2[nH]c(-c3cnn(C)c3)cc12)c1ccc2c(c1)S(=O)(=O)NCC2 | > 20 | > 20 µM |  |  | 
CNCc1cc(-c2cc3c(N[C@@H](c4ccc5c(c4)S(=O)(=O)NCC5)C(C)C)ncnc3[nH]2)co1 | > 20 | > 20 µM | > 50 | > 50 µM | 
Cc1ncc(-c2cc3c(N[C@@H](c4ccc5c(c4)OCCO5)C(C)C)ncnc3[nH]2)cn1 | > 20 | > 20 µM | > 50 | > 50 µM | 
Cn1ncc(-c2cc3c(N[C@@H](c4ccc5c(n4)OCCO5)C(C)(C)C)ncnc3[nH]2)c1C#N | > 10 | > 10 µM and > 20 µM |  |  | CC50 ([1]; hela-ace2): > 20 µM
CC(C)[C@H](Nc1ncnc2[nH]c(-c3cnn(C)c3C#N)cc12)c1ccc2c(n1)OCCO2 | > 20 | > 20 µM and > 50 µM |  |  | CC50 ([1]; hela-ace2): 12.5 µM; CC50 [2, 4]: > 5 µM; CC10 ([2]; veroe6/tmprss2): > 5 µM
CC(C)[C@@H](Nc1ncnc2[nH]c(-c3ccc4cncn4c3)cc12)c1ccc2c(c1)S(=O)(=O)CCC2 | > 20 | > 20 µM |  |  | 
CC(C)[C@H](Nc1ncnc2[nH]ccc12)c1ccc2c(c1)S(=O)(=O)CCC2 | > 20 | > 20 µM |  |  | CC50 ([2]; veroe6/tmprss2): > 20 µM
COc1ccc([C@@H](Cc2nnn[nH]2)NC(=O)c2ncnc3[nH]ccc23)cc1 | > 20 | > 20 µM |  |  | 
Cc1nn(C)cc1-c1cc2c(N[C@H](c3ccc4c(c3)S(=O)(=O)CCC4)C(C)C)ncnc2[nH]1 | > 20 | > 20 µM |  |  | CC50 [2, 4]: > 5 µM; CC10 ([2]; veroe6/tmprss2): > 5 µM
CNCc1cc(-c2cc3c(N[C@@H](c4ccc5c(c4)S(=O)(=O)CCC5)C(C)C)ncnc3[nH]2)co1 | > 20 | > 20 µM | > 50 | > 50 µM | CC50 [2, 4]: > 5 µM; CC10 ([2]; veroe6/tmprss2): > 5 µM
CNC(=O)c1cccc(-c2cc3c(N[C@H](c4ccc5c(c4)S(=O)(=O)CCC5)C(C)C)ncnc3[nH]2)c1 | > 20 | > 20 µM |  |  | 
CC(C)[C@@H](Nc1ncnc2[nH]c(-c3cnn(C)c3C#N)cc12)c1ccc2c(n1)NC(=O)CO2 | > 20 | > 20 µM |  |  | 
CC(C)[C@H](Nc1ncnc2[nH]c(-c3cnn(C)c3C#N)cc12)c1ccc2c(c1)NC(=O)CO2 | > 20 | > 20 µM |  |  | 
Cn1ncc(-c2cc3c(N[C@@H](c4ccc5c(c4)OCCO5)C(C)(C)C)ncnc3[nH]2)c1C#N | > 20 | > 20 µM | 48.6 | > 50 µM | 
CC(C)(C)[C@@H](Nc1ncnc2[nH]c(-c3cnn(CC(N)=O)c3)cc12)c1ccc2c(n1)OCCO2 | > 20 | > 20 µM | > 50 | > 50 µM | 
CNC(=O)c1cc2c(N[C@@H](c3ccc4c(c3)S(=O)(=O)CCC4)C(C)C)ncnc2[nH]1 | > 20 | > 20 µM |  |  | 

— ChEMBL document CHEMBL5441451, “ASAP - In vitro cytotoxicity” (2024)
